Assay results published in patent publication EP1774974A1, “Use of hyperforin or St. John's Wort in the treatment and prevention of metabolic syndrome” (Roots, Ivar, priority 2005, dated 2007).

Columns and labels:
[1] = test system: HepG2 cells; experiment: Real-time RT-PCR gene expression analysis; type: cell-based, human; conditions: 1 µM hyperforin, 24 h, vs. control, geometric mean of three experiments
Description: (§1) HepG2 cells (human hepatocellular carcinoma, German Collection of Microorganisms and Cell Cultures, DSMZ, Braunschweig, Germany) were grown in Dulbecco's Modified Eagle Medium containing 1 g/l D-glucose and 5% fetal bovine serum with 5% CO2 at 37°C. Cells were seeded in 6-well dishes and grown to confluence. Content of 1 Esbericum™ capsule (total hypericin […], Schaper & Bruemmer, Salzgitter, Germany) was extracted with 1 ml ethanol. Cells were treated with either this extract (final concentration 0.1% (v/v)), or 1 µM hyperforin (Calbiochem, Schwalbach, Germany), or 0.1 % ethanol (controls) for 24 h. Three independent experiments were performed.
(§2) Cells were washed twice with phosphate buffered saline, harvested in lysis buffer (Qiagen, Hilden, Germany) with a rubber-policeman and homogenised by centrifugation through a Qiashredder (Qiagen, Hilden, Germany). Preparation of total RNA was performed using a Qiagen RNeasy Mini Kit according to the manufacturer's instructions. RNA concentration was determined photometrically (Uvicon photometer, Kontron). RNA was either used immediately for cDNA synthesis or stored at -80°C.
5 µg RNA was reverse transcribed in a total volume of 20 µl containing 200 U SuperScript™ II RT and 1x reaction buffer (Invitrogen, Karlsruhe, Germany), 500 ng pd(T)12-18 (Amersham Pharmacia Biotech, Freiburg, Germany) and 125 pmol/µl of each dNTP at 42°C for 1 h. Real-time PCR was performed with QuantiTect™ SYBR® Green PCR Kit (Qiagen, Hilden, Germany) according to the manufacturer's instructions. The reaction was carried out in a LightCycler (Roche, Mannheim, Germany), version 5.32, and analysed using the Second Derivative Maximum method.

[2] = test system: HepG2 cells; experiment: Affymetrix HG U95Av2 microarray gene expression analysis; type: cell-based, human; conditions: 1 µM hyperforin, 24 h
Description: as §1, §2
Expression analysis was performed with Affymetrix HG U95Av2 microarray (Affymetrix, Santa Clara, CA). Synthesis of biotin-labelled cRNA and hybridisation were carried out following the Affymetrix protocol. Results were exported to Excei for analysis.

[3] = vs. control, geometric mean of three experiments

Hyperforin
Fold change of ALDOA transcript, RT-PCR [1]: 1.42 | Fold change of FDPS transcript, RT-PCR [1]: 0.49 | Fold change of IGFBP3 transcript, RT-PCR [1]: 8.29 | Fold change of MVD transcript, RT-PCR [1]: 0.56 | Fold change of PCK2 transcript, RT-PCR [1]: 0.49 | Fold change of SLC2A1 transcript, RT-PCR [1]: 1.90 | Fold change of SLC2A3 transcript, RT-PCR [1]: 2.84 | differentially regulated sequences that were upregulated [2]: 120 sequences | sequences identified as differentially regulated (p<0.05) [2]: 201 sequences | Fold change of ALDOA transcript, Array [2, 3]: 1.41 | Fold change of ENO2 transcript, Array [2, 3]: 2.75 | Fold change of FDPS transcript, Array [2, 3]: 0.53 | Fold change of IGFBP3 transcript, Array [2, 3]: 8.79 | Fold change of LDHA transcript, Array [2, 3]: 1.36 | Fold change of LDHB transcript, Array [2, 3]: 1.42 | Fold change of MVD transcript, Array [2, 3]: 0.26 | Fold change of PCK2 transcript, Array [2, 3]: 0.43 | Fold change of PFKFB3 transcript, Array [2, 3]: 1.83 | Fold change of PGK1 transcript, Array [2, 3]: 1.50 | Fold change of PKM2 transcript, Array [2, 3]: 1.40 | Fold change of SLC2A1 transcript, Array [2, 3]: 1.74 | Fold change of SLC2A3 transcript, Array [2, 3]: 3.57 | Fold change of SLC25A8 / UCP2 transcript, Array [2, 3]: 0.54 | Fold change of TM7SF2 transcript, Array [2, 3]: 0.52
